Results as given in patent US12410153B2, “Compounds, compositions and methods” (Avalo Therapeutics, Inc., priority 2014, dated 2025).

Key:
Sprague-Dawley rats = experiment: Locomotor assay; format: in vivo, rat
Experimental: To confirm that the effect of Form II in the forced swim test was not due to a general increase in activity levels, rats were subjected to a locomotor assay following oral Form II administration. Adult male Sprague-Dawley rats (N=42) were randomly assigned across the treatment groups (vehicle or Compound (I) at 0.1, 0.3, 1, 3, 10, and 30 mg/kg; N=6/group). Locomotor activity was assessed during the light cycle in photocell-monitored cages (Hamilton Kinder, San Diego, CA). Each cage consisted of a standard plastic rat cage (24×45.5 cm) surrounded by a stainless steel frame. Infrared photocell beams were located across the long axis of the frame to measure the ambulatory distance traveled. A second set of beams was placed above the floor and was used to measure rearing activity. Photocell beam interruptions were recorded by a computer system. Filter tops were placed on top of the test enclosures during testing. Rats were administered either vehicle or test compound via oral gavage twice on Day 1 (approximately 24 h before the test and prior to dark cycle) and once on Day 2 (45 min prior to placing in the locomotor cages for a 60-min test). Locomotor activity was captured in 5-min bins.

hERG current = hERG current (Homo sapiens, UniProt Q12809); experiment: In vitro hERG assay; format: cell-based
Chain of hERG current (Q12809 whole entry): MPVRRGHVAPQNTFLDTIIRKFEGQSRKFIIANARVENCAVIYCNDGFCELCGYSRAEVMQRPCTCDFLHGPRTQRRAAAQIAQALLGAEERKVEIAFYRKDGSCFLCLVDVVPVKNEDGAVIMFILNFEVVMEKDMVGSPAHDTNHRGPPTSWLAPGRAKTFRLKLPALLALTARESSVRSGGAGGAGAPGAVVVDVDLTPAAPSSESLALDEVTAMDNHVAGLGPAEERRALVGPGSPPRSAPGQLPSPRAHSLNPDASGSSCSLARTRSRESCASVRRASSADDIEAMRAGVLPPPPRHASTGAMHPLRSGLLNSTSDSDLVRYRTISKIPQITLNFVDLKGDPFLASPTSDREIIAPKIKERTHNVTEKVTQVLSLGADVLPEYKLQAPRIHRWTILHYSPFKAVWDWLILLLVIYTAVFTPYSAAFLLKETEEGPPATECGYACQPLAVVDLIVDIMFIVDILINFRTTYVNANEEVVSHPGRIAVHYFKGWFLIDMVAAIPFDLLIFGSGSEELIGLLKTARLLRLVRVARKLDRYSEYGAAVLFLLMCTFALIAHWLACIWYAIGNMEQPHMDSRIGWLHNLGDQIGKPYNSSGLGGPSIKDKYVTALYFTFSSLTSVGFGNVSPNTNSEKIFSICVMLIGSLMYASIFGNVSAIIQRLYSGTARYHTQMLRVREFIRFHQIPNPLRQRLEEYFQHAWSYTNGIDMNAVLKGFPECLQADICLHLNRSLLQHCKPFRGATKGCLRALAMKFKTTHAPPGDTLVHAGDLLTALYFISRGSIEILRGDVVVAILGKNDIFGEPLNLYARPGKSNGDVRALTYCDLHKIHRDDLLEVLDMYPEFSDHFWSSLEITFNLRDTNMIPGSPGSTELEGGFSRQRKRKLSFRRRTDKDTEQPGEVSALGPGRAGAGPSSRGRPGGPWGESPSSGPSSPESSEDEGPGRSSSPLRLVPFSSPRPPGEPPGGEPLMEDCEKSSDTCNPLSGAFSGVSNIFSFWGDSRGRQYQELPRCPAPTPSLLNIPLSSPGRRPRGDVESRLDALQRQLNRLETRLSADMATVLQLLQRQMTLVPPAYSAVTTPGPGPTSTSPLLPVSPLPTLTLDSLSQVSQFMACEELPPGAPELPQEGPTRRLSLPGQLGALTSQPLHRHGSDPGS
Experimental: The potential effects of Form II of Compound (I) on the functions of the nervous system, cardiovascular system, and respiratory system were evaluated in a battery of safety pharmacology studies that included an in vitro human ether-a-go-go-related gene (hERG) assay and in vivo studies in rats, dogs, and monkeys. CNS effects were tested in rats at single doses at 15, 75, and 225 mg/kg.
Effects of Form II on the cardiovascular system were tested in several studies. Potential QTc effects were tested in vitro and in vivo.

In the case of `Cc1ccc(COC(=O)N2CC[C@H](CNc3ncccn3)[C@H](F)C2)cc1` [Form II, 4-methylbenzyl (3S, 4R)-3-fluoro-4-[(pyrimidin-2-ylamino)methyl] piperidine-1-carboxylate], the locomotor effects (Sprague-Dawley rats; 0.1 and 0.3 mg/kg dose groups) is reported as “No locomotor effects”, the ED50 (Sprague-Dawley rats; Rattus norvegicus, read-out: ED50 for increase in locomotor activity) is reported as about 2 mg/kg and the distance traveled (Sprague-Dawley rats; first 5 min of testing, 1, 3, 10, and 30 mg/kg vs vehicle) is reported as “significantly increased”. For the same compound, the “RO corresponding to locomotor ED50” value (Sprague-Dawley rats; rat, in vivo) was about 75%, the total distance traveled (Sprague-Dawley rats; summed over 60-min test, 1, 3, 10, and 30 mg/kg vs vehicle) was “significantly increased” and the IC50 (hERG current) was about 13 µM.
